Target: T1, glucan synthase (GS) (Candida albicans, UniProt O13428)
T1 construct: Extraction of GS activity from membranes was performed at a protein concentration of 5 mg/mL in extraction buffer; endogenous in cells; host or cells: Candida albicans MY1055 (membrane fraction, detergent extraction, product entrapment)
Experiment: Glucan synthase inhibition (polymerization assay, 96-well)
Format: biochemical
Details: glucan synthase prepared from Candida albicans MY1055; 60 min incubation at 22° C.; read-out: Candida Albicans GS IC50 (ng/mL) (converted)
Protocol: The in vitro evaluation of glucan synthase inhibitory activity of compounds was measured in a polymerization assay in 96-well format. Each well contained 100 μL of ^3H-UDPG at 0.5 mM (6000 to 8000 dpm/nmol), 50 mM HEPES pH 7.5 (Sigma), 10% w/v glycerol (Sigma), 1.5 mg/mL bovine serum albumin (Sigma A 9647. Lot 44H0190), 25 mM KF (Fisher), 1 mM EDTA (Gibco ULTRAPURE), 25 μM GTP-γ-S, enzyme sufficient to give 3 to 6 nmoles incorporation during the 60 min incubation at 22° C., and test compound added from wells in 3-fold serial dilutions in 100% DMSO (1 μL/well). The reaction was stopped by the addition of 100 μL of 20% trichloroacetic acid. Plates were chilled for a minimum of 10 min, and precipitated glucan collected by filtration on GF/C plates (Packard UNIFILTER®-96), washed with 5 cycles of water (about 1 mL/well each cycle) using a Packard FILTERMATE HARVESTER. 40 μL/well scintillation fluid (Packard ULTIMA GOLD TM-XR) was added and the sealed plates counted in a WALLAC BETA counter in top-counting mode at an efficiency of approximately 40%.
Stock solutions were stored at 10 mg/mL in DMSO at −20° C. For each new enzyme preparation, the initial titration performed started at 1 mg/mL, which was prepared by making a 10-fold dilution in DMSO (5 μL to 50 μL). 40 μL of this stock was placed in column 12 of a round-bottomed 96-well microtiter plate. 40 μL DMSO was added to columns 1 to 11 in the same row and ten 3-fold serial dilutions performed, by transferring 20 μL from column 12 to column 11 etc., with 4 mixings before each transfer. No test compound was transferred to from column 2 to column 1. Duplicate aliquots of 1 μL of all 12 dilutions were then transferred to the side walls of a 96-well Bioblock 1.1 mL plate (Fisher brand) to create two rows. Graphs of the primary data were created in PRISM software (the average of two determinations) using PRISM's curve fitting program (sigmoidal dose response non-linear regression). The amount of compound required to inhibit glucan synthase activity by 50% in this assay (IC50-ng/mL) was calculated.
Routine analysis was performed with glucan synthase (GS) prepared from Candida albicans MY1055 by the following procedure: MY1055 was grown in 10 liters YPD medium (10 g yeast extract, 20 g tryptone, 20 g glucose per liter) with vigorous shaking at 30° C., to early stationary phase. Cells were harvested by centrifugation, the pellet was washed and frozen at −70° C. until breakage. Thawed pellets were shaken with an equal volume of breakage buffer (50 mM HEPES pH 7.4, 10% glycerol, 1 mM EDTA, 1 mM PMSF, 1 mM DTT) and 4 times their weight of 0.5 mm acid washed glass beads for 2 hours at 4° C. Extent of breakage was assessed visually at 40× magnification. After low speed centrifugation to remove cell debris, the supernatant was centrifuged at 100,000×g for 60 min. to separate membranes plus ribosomes from cytoplasmic components. Membranes were further washed two additional times with breakage buffer using the same centrifugation conditions and finally suspended in breakage buffer at 25 to 30 mg/mL protein (Biorad) for storage at −70° C. Extraction of GS activity from membranes was performed at a protein concentration of 5 mg/mL in extraction buffer (50 mM NaPO4 pH 7.5, 0.1 M KCl, 0.1M Na citrate, 20% glycerol, 5 μM GTP-γ-S, 1 mM DTT, 1 mM PMSF, 3 μg/mL pepstatin) plus 0.25% W1 by gentle mixing at 4° C. for 60 min, followed by centrifugation at 100,000×g for 60 min. After centrifugation, clear supernatant was removed from a pellet consisting of a hard layer usually with small amounts of gelatinous unextracted membranes above it.
Trapping was initiated immediately by 5-fold dilution in trapping buffer (50 mM HEPES pH 7.5, 10 mM KF, 1 mM EDTA, 2 mg/mL BSA) plus 2.5 mM UDPG and 10 μM GTP-γ-S. After incubation at 25° C. for 60 to 90 minutes, glucan was harvested by low speed centrifugation (3,000×g, 10 min). […]

T1 sequence (O13428 1-1897): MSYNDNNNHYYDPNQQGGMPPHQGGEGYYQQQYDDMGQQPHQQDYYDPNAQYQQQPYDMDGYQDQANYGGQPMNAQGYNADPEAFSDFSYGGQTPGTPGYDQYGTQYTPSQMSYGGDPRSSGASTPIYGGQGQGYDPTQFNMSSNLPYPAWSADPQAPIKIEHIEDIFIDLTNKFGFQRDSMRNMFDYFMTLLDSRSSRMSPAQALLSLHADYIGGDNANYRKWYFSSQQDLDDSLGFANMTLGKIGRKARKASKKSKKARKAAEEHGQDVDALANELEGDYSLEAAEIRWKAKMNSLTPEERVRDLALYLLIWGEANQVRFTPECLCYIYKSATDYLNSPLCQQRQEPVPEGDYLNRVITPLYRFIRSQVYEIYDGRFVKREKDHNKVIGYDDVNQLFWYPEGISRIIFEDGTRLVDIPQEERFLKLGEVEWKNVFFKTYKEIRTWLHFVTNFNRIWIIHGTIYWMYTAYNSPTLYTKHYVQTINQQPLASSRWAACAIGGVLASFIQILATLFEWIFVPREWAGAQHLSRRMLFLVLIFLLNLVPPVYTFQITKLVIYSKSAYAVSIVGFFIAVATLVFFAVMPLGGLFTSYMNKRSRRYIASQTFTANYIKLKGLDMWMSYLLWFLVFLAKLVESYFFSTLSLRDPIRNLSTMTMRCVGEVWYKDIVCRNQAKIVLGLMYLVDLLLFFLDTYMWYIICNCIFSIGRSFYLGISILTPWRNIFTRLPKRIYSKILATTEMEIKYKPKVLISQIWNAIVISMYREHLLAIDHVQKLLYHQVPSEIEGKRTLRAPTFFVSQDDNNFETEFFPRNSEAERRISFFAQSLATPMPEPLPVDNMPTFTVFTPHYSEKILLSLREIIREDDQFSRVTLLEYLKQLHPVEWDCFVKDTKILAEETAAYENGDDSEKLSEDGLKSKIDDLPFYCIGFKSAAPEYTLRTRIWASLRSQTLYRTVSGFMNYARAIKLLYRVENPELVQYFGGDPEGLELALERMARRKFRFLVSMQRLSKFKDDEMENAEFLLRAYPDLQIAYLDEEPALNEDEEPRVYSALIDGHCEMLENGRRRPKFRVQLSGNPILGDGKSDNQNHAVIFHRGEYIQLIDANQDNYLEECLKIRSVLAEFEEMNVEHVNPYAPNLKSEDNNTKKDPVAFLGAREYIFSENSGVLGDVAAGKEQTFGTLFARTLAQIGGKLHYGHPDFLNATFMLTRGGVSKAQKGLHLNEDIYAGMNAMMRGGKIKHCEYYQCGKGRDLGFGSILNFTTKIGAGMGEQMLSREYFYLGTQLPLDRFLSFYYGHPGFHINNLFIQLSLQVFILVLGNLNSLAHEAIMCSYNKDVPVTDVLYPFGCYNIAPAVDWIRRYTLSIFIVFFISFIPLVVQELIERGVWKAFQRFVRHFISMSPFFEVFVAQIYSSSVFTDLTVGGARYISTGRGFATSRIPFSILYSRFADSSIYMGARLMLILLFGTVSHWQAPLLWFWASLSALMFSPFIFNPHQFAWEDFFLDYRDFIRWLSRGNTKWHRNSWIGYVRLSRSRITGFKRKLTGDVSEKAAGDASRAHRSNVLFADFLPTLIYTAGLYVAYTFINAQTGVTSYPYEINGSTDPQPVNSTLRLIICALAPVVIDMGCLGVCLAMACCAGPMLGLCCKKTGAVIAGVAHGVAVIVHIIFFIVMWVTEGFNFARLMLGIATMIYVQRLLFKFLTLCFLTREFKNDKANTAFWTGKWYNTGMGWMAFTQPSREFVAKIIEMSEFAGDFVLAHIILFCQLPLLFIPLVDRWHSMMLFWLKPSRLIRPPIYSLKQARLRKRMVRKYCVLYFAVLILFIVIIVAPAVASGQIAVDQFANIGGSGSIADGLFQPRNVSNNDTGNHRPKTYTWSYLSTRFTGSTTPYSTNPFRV
T1 sequence (O42825 1-195 partner limits assumed): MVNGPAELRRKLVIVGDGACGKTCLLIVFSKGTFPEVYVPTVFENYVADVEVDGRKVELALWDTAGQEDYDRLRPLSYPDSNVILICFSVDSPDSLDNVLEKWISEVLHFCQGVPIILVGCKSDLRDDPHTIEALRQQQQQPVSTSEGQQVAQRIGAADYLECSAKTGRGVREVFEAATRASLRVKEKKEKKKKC

SMILES	IC50 [nM]
CC(C)[C@@H](C)[C@@]1(C)CC[C@]2(C)[C@H]3CC[C@@H]4[C@@]5(COC[C@@]4(C)[C@@H](OC[C@](C)(C(C)C)N(C)C)[C@H](n4nnc(N)n4)C5)C3=CC(=O)[C@@]2(C)[C@@H]1C(=O)O (single isomer, unassigned) [Example 15A]	64.6
CC(C)[C@@H](C)[C@@]1(C)CC[C@]2(C)[C@H]3CC[C@@H]4C5(COCC4(C)[C@@H](OCC4CCCN4C)[C@H](n4nnc(N)n4)C5)C3=CC[C@@]2(C)[C@@H]1C(=O)O (stereo in doubt) [Example 46, (1S,4aR,6aS,7R,8R,10aR,10bR,12aR,14R,15R)-14-(5-amino-2H-tetrazol-2-yl)-8-[(1R)-1,2-dimethylpropyl]-15-[(1-methyl-2-pyrrolidinyl)methoxy]-1,6,6a,7,8,9,10,10a,10b,11,12,12a-dodecahydro-1,6a,8,10a-tetramethyl-4H-1,4a-propano-2H-phenanthro[1,2-c]pyran-7-carboxylic acid]	21.4
CC(C)[C@@H](C)[C@@]1(C)CC[C@]2(C)[C@H]3CC[C@@H]4[C@@]5(COC[C@@]4(C)[C@@H](OCC(C)(C)N)[C@H](n4ncnn4)C5)C3=CC[C@@]2(C)[C@@H]1C(=O)O [Example 1B, (1S,4aR,6aS,7R,8R,10aR,10bR,12aR,14R,15R)-15-(2-amino-2-methylpropoxy)-8-[(1R)-1,2-dimethylpropyl]-14-(2H-tetrazol-2-yl)-1,6,6a,7,8,9,10,10a,10b,11,12,12a-dodecahydro-1,6a,8,10a-tetramethyl-4H-1,4a-propano-2H-phenanthro[1,2-c]pyran-7-carboxylic acid]	9.81
CC(C)[C@@H](C)[C@@]1(C)CC[C@]2(C)[C@H]3CC[C@@H]4[C@@]5(COC[C@@]4(C)[C@@H](OCC(C)(N)C(C)C)[C@H](n4cnnn4)C5)C3=CC[C@@]2(C)[C@@H]1C(=O)O (stereo partly drawn) [Example 2A, (1S,4aR,6aS,7R,8R,10aR,10bR,12aR,14R,15R)-15-(2-amino-2,3-dimethylbutoxy)-8-[(1R)-1,2-dimethylpropyl]-14-(1H-tetrazol-1-yl)-1,6,6a,7,8,9,10,10a,10b,11,12,12a-dodecahydro-1,6a,8,10a-tetramethyl-4H-1,4a-propano-2H-phenanthro[1,2-c]pyran-7-carboxylic acid]	82.8
CC(C)[C@@H](C)[C@@]1(C)CC[C@]2(C)[C@H]3CC[C@@H]4[C@@]5(COC[C@@]4(C)[C@@H](OCC(C)(C(C)C)N(C)C)[C@H](n4ncnn4)C5)C3=CC(=O)[C@@]2(C)[C@@H]1C(=O)O (stereo partly drawn) [Example 4B, (1S,4aR,6aS,7R,8R,10aR,10bR,12aR,14R,15R)-15-[2-(dimethylamino)-2,3-dimethylbutoxy]-8-[(1R)-1,2-dimethylpropyl]-14-(2H-tetrazol-2-yl)-1,6,6a,7,8,9,10,10a,10b,11,12,12a-dodecahydro-1,6a,8,10a-tetramethyl-6-oxo-4H-1,4a-propano-2H-phenanthro[1,2-c]pyran-7-carboxylic acid]	63.1
CC(C)[C@@H](C)[C@@]1(C)CC[C@]2(C)[C@H]3CC[C@@H]4[C@@]5(COC[C@@]4(C)[C@@H](OCC(C)(C)N)[C@H](n4nnc(N)n4)C5)C3=CC[C@@]2(C)[C@@H]1C(=O)O [Example 6, (1S,4aR,6aS,7R,8R,10aR,10bR,12aR,14R,15R)-15-(2-amino-2-methylpropoxy)-14-(5-amino-2H-tetrazol-2-yl)-8-[(1R)-1,2-dimethylpropyl]-1,6,6a,7,8,9,10,10a,10b,11,12,12a-dodecahydro-1,6a,8,10a-tetramethyl-4H-1,4a-propano-2H-phenanthro[1,2-c]pyran-7-carboxylic acid]	4.79
CC(C)[C@@H](C)[C@@]1(C)CC[C@]2(C)[C@H]3CC[C@@H]4[C@@]5(COC[C@@]4(C)[C@@H](OC[C@@](C)(C(C)C)N(C)C)[C@H](n4nnc(N)n4)C5)C3=CC[C@@]2(C)[C@@H]1C(=O)O [Example 8, (1S,4aR,6aS,7R,8R,10aR,10bR,12aR,14R,15R)-14-(5-amino-2H-tetrazol-2-yl)-15-[[(2R)-2-(dimethylamino)-2,3-dimethylbutyl]oxy]-8-[(1R)-1,2-dimethylpropyl]-1,6,6a,7,8,9,10,10a,10b,11,12,12a-dodecahydro-1,6a,8,10a-tetramethyl-4H-1,4 a-propano-2H-phenanthro[1,2-c]pyran-7-carboxylic acid]	13.2
CC(C)[C@@H](C)[C@@]1(C)CC[C@]2(C)[C@H]3CC[C@@H]4[C@@]5(COC[C@@]4(C)[C@@H](OC[C@](C)(N)C(C)C)[C@H](n4nnnc4N)C5)C3=CC[C@@]2(C)[C@@H]1C(=O)O [Example 9, (1S,4aR,6aS,7R,8R,10aR,10bR,12aR,14R,15R)-15-[[(2R)-2-amino-2,3-dimethylbutyl]oxy]-14-(5-amino-1H-tetrazol-1-yl)-8-[(1R)-1,2-dimethylpropyl]-1,6,6a,7,8,9,10,10a,10b,11,12,12a-dodecahydro-1,6a,8,10a-tetramethyl-4H-1,4a-propano-2H-phenanthro[1,2-c]pyran-7-carboxylic acid]	56.5
CC(C)[C@@H](C)[C@@]1(C)CC[C@]2(C)[C@H]3CC[C@@H]4[C@@]5(COC[C@@]4(C)[C@@H](OC[C@](C)(C(C)C)N4CCCCC4)[C@H](n4nnc(N)n4)C5)C3=CC[C@@]2(C)[C@@H]1C(=O)O [Example 11, (1S,4aR,6aS,7R,8R,10aR,10bR,12aR,14R,15R)-14-(5-amino-2H-tetrazol-2-yl)-15-[[(2S)-2,3-dimethyl-2-(1-piperidinyl)butyl]oxy]-8-[(1R)-1,2-dimethylpropyl]-1,6,6a,7,8,9,10,10a,10b,11,12,12a-dodecahydro-1,6a,8,10a-tetramethyl-4H-1,4a-propano-2H-phenanthro[1,2-c]pyran-7-carboxylic acid]	78.8
CC(C)[C@@H](C)[C@@]1(C)CC[C@]2(C)[C@H]3CC[C@@H]4[C@@]5(COC[C@@]4(C)[C@@H](OC[C@](C)(NCCCO)C(C)C)[C@H](n4nnc(N)n4)C5)C3=CC[C@@]2(C)[C@@H]1C(=O)O [Example 13, (1S,4aR,6aS,7R,8R,10aR,10bR,12aR,14R,15R)-14-(5-amino-2H-tetrazol-2-yl)-8-[(1R)-1,2-dimethylpropyl]-15-[[(2R)-2-[(3-hydroxypropyl)amino]-2,3-dimethylbutyl]oxy]-1,6,6a,7,8,9,10,10a,10b,11,12,12a-dodecahydro-1,6a,8,10a-tetramethyl-4H-1,4a-propano-2H-phenanthro[1,2-c]pyran-7-carboxylic acid]	2.8
CCN[C@@](C)(CO[C@H]1[C@H](n2nnc(N)n2)C[C@@]23COC[C@]1(C)[C@@H]2CC[C@H]1C3=CC[C@@]2(C)[C@H](C(=O)O)[C@@](C)([C@H](C)C(C)C)CC[C@]12C)C(C)(C)C [Example 20, (1S,4aR,6aS,7R,8R,10aR,10bR,12aR,14R,15R)-14-(5-amino-2H-tetrazol-2-yl)-8-[(1R)-1,2-dimethylpropyl]-15-[[(2R)-2-(ethylamino)-2,3,3-trimethylbutyl]oxy]-1,6,6a,7,8,9,10,10a,10b,11,12,12a-dodecahydro-1,6a,8,10a-tetramethyl-4H-1,4a-propano-2H-phenanthro[1,2-c]pyran-7-carboxylic acid]	4.3
